The experiment concerns Balb/c mice. Description: 31-day HDM-induced asthma model, BAL cells. Particulars: for B cells / DCs / Eosinophils / Macrophages / Neutrophils / T cells / Total cells: BAL, HDM-sensitized, P140 i.v. 4 mg/kg day 25, individual mice. It is filed as in vivo, mouse. The method, then: The aim of this study was to evaluate the effect of the P140 phosphopeptide administered systemically (intravenously) in a 31-day model of HDM-induced asthma in mice. The P140 phosphopeptide was solubilized in sterile water (Braun) and 10× concentrate sterile saline was added to adjust osmolarity to 300 mosm. Osmolarity was controlled with a micro osmometer (Löser, type 15) and validated (303 mosm). The P140 phosphopeptide was used in vivo at the dose of 4 mg/kg by intravenous (i.v.) routes. Control animals received equivalent volumes (2 ml/kg) of saline (Table 8).
Nine-week-old male Balb/c mice were sensitized by intranasal (i.n.) administration of HDM extract (Stallergenes): 1 μg in 25 μl saline on days 0, 1, 2, 3, 4, and 10 μg on days 14 and 21. Mice were challenged by i.n. administration of HDM (1 μg) and/or saline on days 28, 29 and 30. Mice were treated by i.v. injection (2 ml/kg) of P140 or solvent on day 25 (see FIG. 14).
BAL was performed after airway responsiveness measurement twenty-four hours after HDM challenge as described (Daubeuf et al. 2012). Mice were anaesthetized IP (Ketamine 150 mg/kg—Xylasine 10 mg/kg). Blood was collected from the heart, centrifuged at 10,000 g for 2 min and serum stored at −20° C.
After semi-excision of the trachea, a plastic cannula was inserted, and airspace washed with 0.5 ml of 0.9% NaCl injected with a 1 ml syringe. This procedure was performed 10 times. The initial concentrated supernatant of the 2 first lavages (volume=2×0.5 ml administered, approximately 0.5 ml recovered) was collected for cytokine measurements. The remaining BAL fluid was centrifuged (300 g for 5 min, 4° C.), and cell pellets pooled. The cell pellet was suspended in 500 μl of 0.9% NaCl and used for total cell counts evaluated on a Muse® Cell Analyser (Millipore). Differential cell counts were assessed by flow cytometry (LSRII® cytometer, BD Bioscience). BAL cells were added with FCblock (0.5 μl, 553142, BD Bioscience) in a black microplate, incubated for 20 min at room temperature. Then, marker antibodies were added: CD11c-FITC (557400, BD bioscience), Gr-1-PeeFluor610 (61-5931-82, eBioscience), F4/80-PE (12-4801-82, eBioscience), CD11b-APC-Cy7 (557657, BD bioscience), CD45-AlexaFluor700 (103128, BioLegend), CD3-BV605 (564009, BD bioscience), CD19-PE-Cy7 (552854, BD bioscience). Antibodies were incubated with BAL cells for 30 min at room temperature before DAPI (5 μl, BD bioscience) addition, and flow cytometry was performed immediately.
All mice were sensitized to HDM on days 0, 1, 2, 3, 4, 14, 21, and challenged either with saline ([…]) or HDM (challenge with allergen). Results are presented as means±SEM. Differences between groups were tested for statistical significance using Student's t test for inflammatory cells and a two-way ANOVA followed by Bonferroni post-test for airway responses.

Setting [1] is: saline-challenged (chronic asthma).
Setting [2] is: chronic asthma (saline-challenged), P140 4 mg/kg i.v. day 25.
The mark [3] stands for this setting: chronic asthma (saline-challenged), P140 4 mg/kg i.v. day 25, non-significant.

“And” between values parts separate entries of the source, which are not always exact repeats. Equal entries are not always repeated. Numbered stars: 1 amine (or outer) side, 2 acyl side, 3 side chain; on linkers, the order of the positions; unused ones are H or OH. Square brackets hold non-standard residues; d marks the D form. Peptide text beside a SMILES is read from it. ξ: configuration not given here. X1 = CSCC[C@H](NC(=N)[C@H](Cc1c[nH]cn1)N[*:1])C(=O)[*:2]; pS = N[C@@H](COP(=O)(O)O)C(=O)O; Ile(3ξ) = CCC(C)[C@H](N)C(=O)O

As to `CCC(C)[C@H](NC(=O)[C@H](Cc1ccccc1)NC(=O)[C@H](C)NC(=O)[C@H](Cc1ccc(O)cc1)NC(=O)CNC(=O)[C@H](CCCNC(=N)N)NC(=O)[C@@H]1CCCN1C(=O)[C@H](CCCCN)NC(=O)CNC(=O)[C@H](COP(=O)(O)O)NC(=O)[C@H](CCCNC(=N)N)NC(=O)[C@H](CCCCN)NC(=O)[C@H](CO)NC(=O)[C@H](Cc1ccc(O)cc1)NC(=O)[C@@H](NC(=O)[C@H](CCSC)NC(=N)[C@H](Cc1c[nH]cn1)NC(=O)[C@@H](NC(=O)[C@@H](N)CCCNC(=N)N)C(C)CC)C(C)C)C(=O)N[C@@H](CCC(=O)O)C(=O)N[C@@H](Cc1ccc(O)cc1)C(=O)O` (stereo partly shown) [Compound P140] (H-R[Ile(3ξ)][X1]VYSKR[pS]GKPRGYAF[Ile(3ξ)]EY-OH), under “HDM-challenged (HDM + P140)”, the B cells is 59 092 and 102 246 and 42 085 and 25 443 and 116 814 and 115 000 and 53 947 and 170 980; the DCs is 1 034 and 2 238 and 1 793 and 242 and 586 and 1 350 and 733 and 1 928; the Eosinophils was 955 824 and 1 404 942 and 636 065 and 342 046 and 1 283 190 and 1 036 803 and 538 210 and 1 010 666; the Macrophages was 58 705 and 118 771 and 314 326 and 125 002 and 34 364 and 38 709 and 29 121 and 73 491. For the same molecule, where the note is “HDM-challenged (HDM + P140)”, the Neutrophils is 606 700 and 510 027 and 500 004 and 147 616 and 371 317 and 487 119 and 284 503 and 24 426; the T cells was 400 329 and 735 865 and 383 074 and 243 813 and 469 834 and 502 985 and 334 784 and 1 056 303; the Total cells is 2140000 and 2992000 and 2190000 and 1010000 and 2310000 and 2220000 and 1270000 and 2410000. Also, under setting [1], the B cells was 2 297 and 44 668 and 22 879 and 11 101 and 7 660; the DCs is 0 and 484 and 461 and 319 and 160; the Eosinophils is 124 514 and 450 346 and 448 074 and 205 568 and 239 527; the Macrophages is 130 734 and 267 885 and 360 987 and 177 815 and 73 725. In addition, under setting [1], the Neutrophils was 2 584 and 35 734 and 23 986 and 34 836 and 2 394; the T cells is 57 711 and 323 623 and 294 011 and 208 439 and 86 810; the Total cells was 448000 and 1390000 and 1510000 and 815000 and 484000. The “Inflammatory cell recruitment in BAL” value (HDM-challenged mice, vs solvent group) was “no effect”. Also, under setting [2], the “Increase of number of macrophages in BAL vs solvent group” value was 4.5 fold and the “Number of neutrophils in BAL, change vs solvent group” value was −71%. In addition, under setting [3], the “Number of B cells in BAL, change vs solvent group” value was −40% and the “Number of eosinophils in BAL, change vs solvent group” value is −25%.

(Values after patent publication US20190352341A1, “MODIFIED PEPTIDES AND THEIR USE FOR TREATING SYSTEMIC LUPUS ERYTHEMATOSUS” (IMMUPHARMA FRANCE SA, priority 2018, published 2019).)
